Patent publication US8309765B2, “Process for manufacture of high purity D-(−)-N,N-diethyl-2-(α-naphthoxy) propionamide” (United Phosphorus Limited, priority 2007, dated 2012)
Converted amounts (≈) assume the structure as drawn.

How the values were obtained:
[1] = stability in the presence of UV radiation; type: physicochemical
water solubility = type: physicochemical
certain weeds = details: cited from earlier work

Row | solubility (water solubility; water, at 20° C.) | Structure (SMILES) | stability in the presence of UV radiation / UV light, colour change [1] | activity relative to the (L)-isomer (certain weeds; (D)-isomer vs (L)-isomer) | activity relative to the racemic mixture (certain weeds; (D)-isomer vs racemic mixture) | water solubility (water solubility)
1 | 73 µg/mL (≈ 269 µM) | CCN(CC)C(=O)C(C)Oc1cccc2ccccc12 (racemic) [Racemic form of -(−)-N,N-diethyl-2-(α-naphthoxy)propionamide, N,N-diethyl-2-(α-naphthoxy)propionamide, reference compound] | decomposes in the presence of UV radiation with colour change | – | – | –
2 | – | CCN(CC)C(=O)[C@@H](C)Oc1cccc2ccccc12 [D-(−)-N,N-diethyl-2-(α-naphthoxy)propionamide] | stable in the presence of UV light | 8 times | 1.7-2 times | 50 mg/1 ltr
